Results from PMC6738921, “Polyamine biosynthesis in Xenopus laevis: the xlAZIN2/xlODC2 gene encodes a lysine/ornithine decarboxylase” (PLoS ONE, 2019).
Like-named read-outs stand apart in the source and are kept apart here. Values belong to the molecule of their own block, whether it stands above or below them.

How the values were obtained:
Settings in all cases: anti-Flag purified enzyme, less than 10% of activity recovered on purification, assay buffer: 0.1 mM pyridoxal phosphate, 1 mM dithiothreitol, 37°C
[1] = biological target: T1, xlODC1 (Xenopus laevis, UniProt P27120); assay: decarboxylase activity, Michaelis-Menten fit; format: biochemical
T1 construct: gene odc1-a
T1 sequence (P27120 1-460): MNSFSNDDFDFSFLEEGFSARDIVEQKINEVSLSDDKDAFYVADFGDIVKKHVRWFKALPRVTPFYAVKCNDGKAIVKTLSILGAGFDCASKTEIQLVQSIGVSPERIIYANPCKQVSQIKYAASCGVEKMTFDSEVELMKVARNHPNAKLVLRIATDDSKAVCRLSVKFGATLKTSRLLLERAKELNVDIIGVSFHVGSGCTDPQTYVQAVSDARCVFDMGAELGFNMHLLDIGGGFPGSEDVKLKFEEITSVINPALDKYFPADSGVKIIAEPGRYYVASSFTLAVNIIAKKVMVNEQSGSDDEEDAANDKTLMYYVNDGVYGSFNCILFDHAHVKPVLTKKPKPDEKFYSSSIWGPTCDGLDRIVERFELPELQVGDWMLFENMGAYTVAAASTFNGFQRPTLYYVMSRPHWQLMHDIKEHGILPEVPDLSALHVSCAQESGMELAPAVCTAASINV

[2] = substrate: NCCC[C@H](N)C(=O)O; assay: purified protein
[3] = substrate: NCCCC[C@H](N)C(=O)O; assay: decarboxylase activity, Michaelis-Menten fit; format: biochemical, Xenopus laevis

Km ([1]; unit inferred, mM from, read-out: Km^Lys): 34.9 ± 6.1 mM
Molecule: NCCCC[C@H](N)C(=O)O [L-lysine]

Km ([1]; read-out: Km^Orn): 0.103 ± 0.027 mM
Molecule: NCCC[C@H](N)C(=O)O [L-ornithine]

B1: xlAZIN2 (xlODC2, xlLDC, xlLODC) (Xenopus laevis) (protein)
chain: MQGYIQESDFNLVEEGFLARDLMEEIINEVSQTEDRDAFFVADLGDVVRKHLRFLKALPRVKPFYAVKCNSSKGVVKILAELGAGFDCASKTEIELVQDVGVAPERIIYANPCKQISQIKYAAKNGVQMMTFDNEVELSKVSRSHPNARMVLRIATDDSKSSARLSVKFGAPLKSCRRLLEMAKNLSVDVIGVSFHVGSGCTDSKAYTQAISDARLVFEMASEFGYKMWLLDIGGGFPGTEDSKIRFEEIAGVINPALDMYFPESSDVQIIAEPGRYYVASAFSLAVNVIAKKEVEHSVSDDEENESSKSIMYYVNDGVYGSFNCLVFDHAHPKPILHKKPSPDQPLYTSSLWGPTCDGLDQIAERVQLPELHVGDWLLFENMGAYTIAASSNFNGFQQSPVHYAMPRAAWKAVQLLQRGLQQTEEKENVCTPMSCGWEISDSLCFTRTFAATSII
Km [2]: 3.08 ± 0.81 mM
Km [3]: 0.807 ± 0.102 mM
